Laboratory results as given in US9957274B2, “Indane inhibitors of EED and methods of their use” (AbbVie Inc., priority 2016, dated 2018).
Read-outs that look alike come from different tables or passages of the source.

Legend:
Pfeiffer cells = assay: CTG cell viability assay (CellTiter-Glo); assay type: cell-based; conditions: Homo sapiens, 240 h
Procedure: 1,000 cells were plated into each well of 96-well Corning CellBing cell culture plates and incubated overnight at 37° C. in a humidified CO2 incubator. […] The cell culture plates were then incubated for 10 more days. CTG cell viability assay was performed on the cell culture samples by using CellTiter-Glo® Luminescent Cell Viability Assay Kit (Promega).

H3K27me3 in G401 cells = assay: H3K27me3 AlphaLISA assay in G401 cells; assay type: cell-based; conditions: Homo sapiens, G-401, 144 h, 6 days with compound
Procedure: G401 cells (ATCC catalog # CRL-1441) were maintained in McCoy's 5a medium (ATCC) supplemented with 10% heat-inactivated FBS (HyClone) at 37° C. in a humidified CO2 incubator. OCILY19 cells (DSMZ catalog #ACC 528) were maintained in IMDM (Invitrogen) supplemented with 10% human serum (Sigma) at 37° C. in a humidified CO2 incubator. 5,000 cells were plated into each well of 96-well Corning CellBing cell culture plates and incubated overnight at 37° C. in a humidified CO2 incubator. […] The cell culture plates were then incubated for 6 more days. H3K27me3 AlphaLISA assay was performed on the cell culture samples by using AlphaLISAR® H3K27me3 Cellular Detection Kit (PerkinElmer) and 96-well white half-area plates (PerkinElmer).

[1] = system: H3K27me3 in OCILY19 cells; assay: H3K27me3 AlphaLISA assay in OCILY19 cells; assay type: cell-based; conditions: Homo sapiens, OCI-LY19, 144 h, 6 days with compound, read-out: OCILY-19 IC50
Procedure: 5,000 cells were plated into each well of 96-well Corning CellBing cell culture plates and incubated overnight at 37° C. in a humidified CO2 incubator. […] The cell culture plates were then incubated for 6 more days. H3K27me3 AlphaLISA assay was performed on the cell culture samples by using AlphaLISAR® H3K27me3 Cellular Detection Kit (PerkinElmer) and 96-well white half-area plates (PerkinElmer).

EED = EED (Homo sapiens, UniProt O75530); assay: EED TR-FRET Binding Assay (modified LanthaScreen competition assay)
Sequence of EED (O75530 whole entry): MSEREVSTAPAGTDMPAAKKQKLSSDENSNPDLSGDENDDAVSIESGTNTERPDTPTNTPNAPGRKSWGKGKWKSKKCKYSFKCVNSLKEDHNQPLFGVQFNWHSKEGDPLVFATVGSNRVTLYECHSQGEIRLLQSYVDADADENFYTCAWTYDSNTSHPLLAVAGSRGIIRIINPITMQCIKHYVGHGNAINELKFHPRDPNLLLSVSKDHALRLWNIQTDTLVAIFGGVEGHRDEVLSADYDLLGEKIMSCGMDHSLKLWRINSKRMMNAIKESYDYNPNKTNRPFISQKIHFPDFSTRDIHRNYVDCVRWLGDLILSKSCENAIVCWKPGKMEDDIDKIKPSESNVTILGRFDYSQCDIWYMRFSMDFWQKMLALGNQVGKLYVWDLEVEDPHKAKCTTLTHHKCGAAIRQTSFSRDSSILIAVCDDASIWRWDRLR
Outline: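 Competition binding in a modified LanthaScreen format, in 20 mM Tris-HCl pH 7.5, 200 mM NaCl, 0.01% Tween-20, 10 uM DTT and 0.05% BSA. Reactions ran 1 hour at 25° C before TR-FRET detection.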

[2] = Pfeiffer cells, 10 days with compound, CellTiter-Glo, read-out: Cell Proliferation IC50
[3] = Pfeiffer, read-out: Cell Proliferation IC50 (uM)

| IC50 [1] [nM] | IC50 (EED) [nM] | Compound | IC50 (Pfeiffer cells; [2]) [µM] | IC50 (H3K27me3 in G401 cells) [nM] | IC50 (Pfeiffer cells; [3]) [µM] | IC50 (EED; read-out: TR-FRET Binding) [nM] |
| --- | --- | --- | --- | --- | --- | --- |
| 492 | 0.646 | CN(C)[C@H]1CN(C2CCc3cccc(F)c32)C[C@@H]1C1CCN(c2ncc(C(N)=O)s2)CC1 (mixture of isomers) [Example 162, rac-2-{4-[(3S,4R)-4-(dimethylamino)-1-(7-fluoro-2,3-dihydro-1H-inden-1-yl)pyrrolidin-3-yl]piperidin-1-yl}-1,3-thiazole-5-carboxamide] | 0.216 | 291 |  |  |
| 1790 | 2.04 | CN(C)[C@H]1CN(C2CCc3cccc(F)c32)C[C@@H]1C1CCN(c2ccccn2)CC1 (mixture of isomers) [Example 152, rac-(3R,4S)-1-(7-fluoro-2,3-dihydro-1H-inden-1-yl)-N,N-dimethyl-4-[1-(pyridin-2-yl)piperidin-4-yl]pyrrolidin-3-amine] | 0.804 | 476 |  |  |
| 376 | 1.67 | Cc1cc([C@H]2CN(C3CCc4cccc(F)c43)C[C@@H]2N(C)C)ccc1N1CCN(C)C(=O)C1 (mixture of isomers) [Example 58, rac-4-{4-[(3S,4R)-4-(dimethylamino)-1-(7-fluoro-2,3-dihydro-1H-inden-1-yl)pyrrolidin-3-yl]-2-methylphenyl}-1-methylpiperazin-2-one] | 0.314 |  |  |  |
| 637 | 10.7 | CN(C)[C@H]1CN(C2CCc3cccc(F)c32)C[C@@H]1c1ccc(S(N)(=O)=O)cc1 (mixture of isomers) [Example 8, rac-4-[(3S,4R)-4-(dimethylamino)-1-(7-fluoro-2,3-dihydro-1H-inden-1-yl)pyrrolidin-3-yl]benzene-1-sulfonamide] | 1.32 |  |  |  |
| 1080 | 4.62 | CN(C)[C@H]1CN(C2CCc3cccc(F)c32)C[C@@H]1c1ccc(C(=O)N2CC[C@H](O)C2)cc1 (mixture of isomers) [Example 40, rac-{4-[(3S,4R)-4-(dimethylamino)-1-(7-fluoro-2,3-dihydro-1H-inden-1-yl)pyrrolidin-3-yl]phenyl}[(3S)-3-hydroxypyrrolidin-1-yl]methanone] | 0.941 |  |  |  |
| 99.1 | 1.06 | CN(C)[C@@H]1CN(C2CCc3cccc(F)c32)C[C@H]1c1ccc(N2CCN(C(=O)C(N)=O)CC2)cc1 (mixture of isomers) [Example 54, rac-2-(4-{4-[(3R,4S)-4-(dimethylamino)-1-(7-fluoro-2,3-dihydro-1H-inden-1-yl)pyrrolidin-3-yl]phenyl}piperazin-1-yl)-2-oxoacetamide] | 0.114 |  |  |  |
| 601 | 20.5 | CNC(=O)c1ccc([C@H]2CN(C3CCc4cccc(F)c43)C[C@@H]2N(C)C)cc1 (mixture of isomers) [Example 24, rac-4-[(3S,4R)-4-(dimethylamino)-1-(7-fluoro-2,3-dihydro-1H-inden-1-yl)pyrrolidin-3-yl]-N-methylbenzamide] | 2.92 |  |  |  |
| 3450 | 8.19 | CN(C)[C@H]1CN([C@@H]2C[C@H](F)c3cccc(F)c32)C[C@@H]1c1ccc(S(C)(=O)=O)cc1 (mixture of isomers) [Example 31, rac-(3R,4S)-1-[(1R,3S)-3,7-difluoro-2,3-dihydro-1H-inden-1-yl]-4-[4-(methanesulfonyl)phenyl]-N,N-dimethylpyrrolidin-3-amine] | 0.754 |  |  |  |
| 163 | 1.07 | CN(C)C(=O)C(=O)N1CCN(c2ccc([C@@H]3CN(C4CCc5cccc(F)c54)C[C@H]3N(C)C)cc2)CC1 (mixture of isomers) [Example 59, rac-2-(4-{4-[(3R,4S)-4-(dimethylamino)-1-(7-fluoro-2,3-dihydro-1H-inden-1-yl)pyrrolidin-3-yl]phenyl}piperazin-1-yl)-N,N-dimethyl-2-oxoacetamide] | 0.127 |  |  |  |
| 220 | 2.14 | CN(C)[C@H]1CN(C2CCc3cccc(F)c32)C[C@@H]1c1cn(C)c2c(C(=O)N3CCN(S(C)(=O)=O)CC3)cccc12 (mixture of isomers) [Example 126, rac-{3-[(3S,4R)-4-(dimethylamino)-1-(7-fluoro-2,3-dihydro-1H-inden-1-yl)pyrrolidin-3-yl]-1-methyl-1H-indol-7-yl}[4-(methanesulfonyl)piperazin-1-yl]methanone] | 0.329 |  |  |  |
| 203 | 1.07 | CN1CCN(C(=O)c2cccc3c([C@H]4CN(C5CCc6cccc(F)c65)C[C@@H]4N(C)C)cn(C)c23)CC1=O (mixture of isomers) [Example 125, rac-4-{3-[(3S,4R)-4-(dimethylamino)-1-(7-fluoro-2,3-dihydro-1H-inden-1-yl)pyrrolidin-3-yl]-1-methyl-1H-indole-7-carbonyl}-1-methylpiperazin-2-one] | 0.268 |  |  |  |
| 1060 | 18.2 | CN(C)C(=O)c1ccc([C@H]2CN(C3CCc4cccc(Cl)c43)C[C@@H]2N(C)C)cc1 (mixture of isomers) [Example 25, rac-4-[(3S,4R)-1-(7-chloro-2,3-dihydro-1H-inden-1-yl)-4-(dimethylamino)pyrrolidin-3-yl]-N,N-dimethylbenzamide] | 2.93 |  |  |  |
| 804 | 1.14 | CN1CCN(c2ccc([C@H]3CN(C4CCc5cccc(F)c54)C[C@@H]3N(C)C)cc2)CC1 (mixture of isomers) [Example 61, rac-(3R,4S)-1-(7-fluoro-2,3-dihydro-1H-inden-1-yl)-N,N-dimethyl-4-[4-(4-methylpiperazin-1-yl)phenyl]pyrrolidin-3-amine] | 0.204 |  |  |  |
| 306 | 1.05 | CCS(=O)(=O)N1CCN(C(=O)c2cccc3c([C@H]4CN(C5CCc6cccc(F)c65)C[C@@H]4N(C)C)cn(C)c23)CC1 (mixture of isomers) [Example 130, rac-{3-[(3S,4R)-4-(dimethylamino)-1-(7-fluoro-2,3-dihydro-1H-inden-1-yl)pyrrolidin-3-yl]-1-methyl-1H-indol-7-yl}[4-(ethanesulfonyl)piperazin-1-yl]methanone] | 0.311 |  |  |  |

| Compound | IC50 [1] [nM] | IC50 (EED) [nM] | IC50 (Pfeiffer cells; [2]) [µM] | IC50 (H3K27me3 in G401 cells) [nM] | IC50 (Pfeiffer cells; [3]) [µM] | IC50 (EED; read-out: TR-FRET Binding) [nM] |
| --- | --- | --- | --- | --- | --- | --- |
| CN(C)[C@H]1CN(C2CCc3cccc(F)c32)C[C@@H]1C1CCN(c2ccc(C(N)=O)cn2)CC1 (mixture of isomers) [Example 167, rac-6-{4-[(3S,4R)-4-(dimethylamino)-1-(7-fluoro-2,3-dihydro-1H-inden-1-yl)pyrrolidin-3-yl]piperidin-1-yl}pyridine-3-carboxamide] | 267 | 0.399 | 0.143 | 131 |  |  |
| CC(=O)N1CCN(c2ccc([C@H]3CN(C4CCc5cccc(F)c54)C[C@@H]3N(C)C)cc2)CC1 (stereo partly drawn) [Example 43, 1-(4-{4-[(3S,4R)-4-(dimethylamino)-1-(7-fluoro-2,3-dihydro-1H-inden-1-yl)pyrrolidin-3-yl]phenyl}piperazin-1-yl)ethan-1-one] | 50.4 | 0.297 |  | 32.6 |  |  |
| CN(C)[C@H]1CN(C2CCc3cccc(F)c32)C[C@@H]1c1ccc(N2CCN(S(C)(=O)=O)CC2)cc1 (mixture of isomers) [Example 2, rac-(3R,4S)-1-(7-fluoro-2,3-dihydro-1H-inden-1-yl)-4-{4-[4-(methanesulfonyl)piperazin-1-yl]phenyl}-N,N-dimethylpyrrolidin-3-amine] | 140 |  |  | 99.2 | 0.126 |  |
| CN(C)[C@H]1CN(C2CCc3ccccc32)C[C@@H]1c1cn(C)c2ccccc12 (stereo partly drawn) [Example 88, (3R,4S)-1-(2,3-dihydro-1H-inden-1-yl)-N,N-dimethyl-4-(1-methyl-1H-indol-3-yl)pyrrolidin-3-amine] | 2440 | 26.2 |  |  | 3.55 |  |
| CN(C)[C@H]1CN([C@H]2CCc3cccc(F)c32)C[C@@H]1c1cn(C)c2ccccc12 [Example 77, (3R,4S)-1-[(1S)-7-fluoro-2,3-dihydro-1H-inden-1-yl]-N,N-dimethyl-4-(1-methyl-1H-indol-3-yl)pyrrolidin-3-amine] | 655 |  |  |  | 1.07 | 1.03 |
| CN(C)[C@H]1CN(C2CCc3cccc(F)c32)C[C@@H]1c1ccc(N2CCN(S(C)(=O)=O)CC2)cc1 (mixture of isomers) [Example 1, (3R,4S)-1-(7-fluoro-2,3-dihydro-1H-inden-1-yl)-4-{4-[4-(methanesulfonyl)piperazin-1-yl]phenyl}-N,N-dimethylpyrrolidin-3-amine] | 62.1 |  |  | 55.5 | 0.0725 |  |
| CC(=O)N1CCN(c2ccc([C@H]3CN(C4CCc5cccc(F)c54)C[C@@H]3N(C)C)cc2)CC1 (mixture of isomers) [Example 44, rac-1-(4-{4-[(3S,4R)-4-(dimethylamino)-1-(7-fluoro-2,3-dihydro-1H-inden-1-yl)pyrrolidin-3-yl]phenyl}piperazin-1-yl)ethan-1-one] | 144 | 0.652 |  |  | 0.0836 |  |
